Where two headings read alike, the source gives them in different places.
Columns and labels:
[1] = target: T1, Human recombinant PDE2A (hPDE2A) (Homo sapiens, UniProt O00408); experiment: In vitro assay PDE2A (SPA, 3H-cGMP); format: biochemical
T1 construct: made in house; host or cells: Sf9 insect cells (baculovirus)

[2] = target: T2, Rat recombinant PDE10A (rPDE10A2) (Rattus norvegicus, UniProt Q9QYJ6); experiment: In vitro assay PDE10A (SPA, 3H-cAMP); format: biochemical
T2 construct: made in house; host or cells: Sf9 insect cells (baculovirus)
T2 sequence (Q9QYJ6 1-794): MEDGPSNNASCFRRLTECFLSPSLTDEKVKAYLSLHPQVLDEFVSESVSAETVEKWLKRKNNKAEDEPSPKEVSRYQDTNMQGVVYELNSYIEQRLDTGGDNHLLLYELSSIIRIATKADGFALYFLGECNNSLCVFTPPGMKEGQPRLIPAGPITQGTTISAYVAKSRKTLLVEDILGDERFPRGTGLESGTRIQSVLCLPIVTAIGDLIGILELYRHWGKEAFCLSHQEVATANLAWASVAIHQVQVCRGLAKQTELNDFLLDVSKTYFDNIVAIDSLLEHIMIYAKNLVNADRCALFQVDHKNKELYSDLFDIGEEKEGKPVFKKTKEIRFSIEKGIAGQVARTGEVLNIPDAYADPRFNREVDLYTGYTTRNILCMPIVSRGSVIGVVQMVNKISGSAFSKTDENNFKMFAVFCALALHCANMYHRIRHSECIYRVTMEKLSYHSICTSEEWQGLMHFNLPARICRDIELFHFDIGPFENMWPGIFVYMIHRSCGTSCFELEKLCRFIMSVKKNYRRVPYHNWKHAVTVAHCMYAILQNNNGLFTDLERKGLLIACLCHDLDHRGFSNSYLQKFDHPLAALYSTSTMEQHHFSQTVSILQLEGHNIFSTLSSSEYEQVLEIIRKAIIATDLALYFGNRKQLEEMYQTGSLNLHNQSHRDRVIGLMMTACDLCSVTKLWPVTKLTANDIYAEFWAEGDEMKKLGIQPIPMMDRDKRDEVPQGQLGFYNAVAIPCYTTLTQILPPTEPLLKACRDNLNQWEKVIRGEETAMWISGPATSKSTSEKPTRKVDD

[3] = system: Apomorphine-induced agitation; experiment: Reversal of Apomorphine-induced Agitation in Rats (APO); format: in vivo, rat; conditions: for SC Dose at max effect / SC Max effect (cumulative agitation score over 60 min) / SC LAD (lowest active dose): subcutaneous route; for SC Max effect (cumulative agitation score over 60 min) / PO Max effect (cumulative agitation score over 60 min): apomorphine 1.0 mg/kg i.v.; for SC LAD (lowest active dose) / PO LAD (lowest active dose): lowest dose at which ≥67% tested animals respond
Protocol: Apomorphine (1.0 mg/kg, i.v.)-induced agitation was scored every 5 min over the first hour after injection of apomorphine. The score system was: (3) pronounced, (2) moderate, (1) slight, and (0) absent. […] For the present purpose, the cumulative agitation score over the whole 60-min observation period was used as a measure to describe the maximum effect (Max effect).

[4] = read-out: pIC50 PDE2 (converted)
[5] = read-out: PIC50 PDE10 (converted)

T1 sequence (O00408 whole entry): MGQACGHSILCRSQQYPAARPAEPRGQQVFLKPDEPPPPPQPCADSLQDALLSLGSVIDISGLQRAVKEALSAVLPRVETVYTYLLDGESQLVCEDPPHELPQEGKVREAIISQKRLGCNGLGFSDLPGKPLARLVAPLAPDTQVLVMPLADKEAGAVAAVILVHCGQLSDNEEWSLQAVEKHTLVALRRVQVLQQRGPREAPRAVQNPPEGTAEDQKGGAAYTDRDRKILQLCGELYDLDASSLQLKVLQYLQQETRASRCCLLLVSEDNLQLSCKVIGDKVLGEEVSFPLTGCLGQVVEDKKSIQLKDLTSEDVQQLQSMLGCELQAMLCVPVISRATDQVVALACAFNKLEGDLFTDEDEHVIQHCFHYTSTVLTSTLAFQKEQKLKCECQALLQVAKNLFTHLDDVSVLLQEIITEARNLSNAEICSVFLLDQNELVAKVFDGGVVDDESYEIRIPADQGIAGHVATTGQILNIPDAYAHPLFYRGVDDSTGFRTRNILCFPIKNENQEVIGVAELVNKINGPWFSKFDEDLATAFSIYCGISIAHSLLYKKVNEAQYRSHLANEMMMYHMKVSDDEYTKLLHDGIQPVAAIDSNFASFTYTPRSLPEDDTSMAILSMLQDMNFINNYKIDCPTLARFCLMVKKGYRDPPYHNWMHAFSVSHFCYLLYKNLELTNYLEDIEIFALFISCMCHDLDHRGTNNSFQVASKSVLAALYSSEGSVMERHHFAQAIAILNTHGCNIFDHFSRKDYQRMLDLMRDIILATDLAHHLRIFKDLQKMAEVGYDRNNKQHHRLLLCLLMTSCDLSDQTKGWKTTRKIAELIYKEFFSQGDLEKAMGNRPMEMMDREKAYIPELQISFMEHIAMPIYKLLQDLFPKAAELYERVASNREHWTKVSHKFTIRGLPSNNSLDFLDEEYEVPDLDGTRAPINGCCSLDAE

Row | SMILES | IC50 [1, 4] [nM] | IC50 [2, 5] [nM] | IC50 ([2]; -log IC50 expressed in mol/L, rPDE10A2, 60 nM cAMP, read-out: PIC50 PDE10 (converted)) [nM] | SC Dose at max effect [3] [mg/kg] | SC Max effect (cumulative agitation score over 60 min) [3] | SC LAD (lowest active dose) [3] [mg/kg] | PO Dose at Max Effect [3] [mg/kg] | PO Max effect (cumulative agitation score over 60 min) [3] | PO LAD (lowest active dose) [3] [mg/kg] | IC50 [1] [nM] | IC50 [2] [nM]
1 | Cc1ncccc1-c1nnc2c(C)nc3ccc(CN4CCOCC4)cc3n12 [Compound B-118] | 25.7 | 117 |  | 10 | 17 | 10 |  |  |  |  | 
2 | CCNC(=O)c1ccc2nc(C)c3nnc(-c4ccccc4F)n3c2c1 [Compound B-51] | 2.51 |  | 155 |  |  |  | 10 | 21 | > 10 |  | 
3 | COc1cc(CNC(=O)c2ccc3nc(C)c4nnc(-c5ccccc5Cl)n4c3c2)cc(OC)c1OC [Compound B-66] | 5.89 | 37.2 |  |  |  |  | 10 | 21 | > 10 |  | 
4 | Cc1nc2ccc(C(=O)NCCN3CCCCC3)cc2n2c(-c3ccccc3Cl)nnc12 [Compound B-45] | 1.95 | 74.1 |  | 10 | 21 | > 10 |  |  |  |  | 
5 | CCOc1ccc(Cl)c(-c2nnc3c(C)nc4ccc(N5CCN(C)CC5)cc4n23)c1 [Compound B-102] | 18.2 | 162 |  | 10 | 21 | > 10 |  |  |  |  | 
6 | Cc1nc2ccc(C(=O)NCCN3CCCC3)cc2n2c(-c3ccccc3Cl)nnc12 [Compound B-48] | 2.09 | 61.7 |  | 10 | 24 | > 10 |  |  |  |  | 
7 | Cc1nc2ccc(CN3CCOC(CO)C3)cc2n2c(-c3ccccc3Cl)nnc12 (stereo not drawn) [Compound B-55] |  |  |  | 10 | 22 | > 10 |  |  |  | 3.47 | 10.7
8 | Cc1nc2ccc(C(=O)NCCCc3ccccc3)cc2n2c(-c3ccccc3)nnc12 [Compound B-77] | 7.41 | 77.6 |  |  |  |  | 2.5 | 21 | > 2.5 |  | 
9 | Cc1nc2ccc(C(=O)NCc3cccnc3)cc2n2c(-c3ccccc3)nnc12 [Compound B-56] | 3.98 | 44.7 |  |  |  |  | 10 | 21 | > 10 |  | 
10 | CCOc1ccc(Cl)c(-c2nnc3c(C)nc4ccc(CNc5cccnc5)cc4n23)c1 [Compound B-103] | 18.6 | 178 |  | 10 | 21 | > 10 |  |  |  |  | 
11 | Cc1ncccc1-c1nnc2c(C)nc3ccc(C(F)(F)F)cc3n12 [Compound B-167] | 95.5 | 263 |  |  |  |  | 10 | 19 | 10 |  | 
12 | COc1ccc(Cl)c(-c2nnc3c(C)nc4ccc(CN5CCC(F)CC5)cc4n23)c1 [Compound B-97] | 14.1 | 77.6 |  | 10 | 19 | 10 |  |  |  |  | 
13 | Cc1ccc(Cl)c(-c2nnc3c(C)nc4ccc(C(=O)NCc5ccccn5)cc4n23)c1 [Compound B-44] | 1.78 | 35.5 |  |  |  |  | 10 | 21 | > 10 |  | 
14 | Cc1nc2ccc(C(=O)NCc3ccccn3)cc2n2c(-c3cc(Cl)ccc3Cl)nnc12 [Compound B-11, 1-(2,5-Dichlorophenyl)-4-methyl-N-(pyridin-2-ylmethyl)[1,2,4]triazolo[4,3-a]quinoxaline-8-carboxamide] | 1.62 | 33.9 |  |  |  |  | 10 | 19 | > 10 |  | 

The next lines start with results.

Row | IC50 [1, 4] [nM] | IC50 [2, 5] [nM] | IC50 ([2]; -log IC50 expressed in mol/L, rPDE10A2, 60 nM cAMP, read-out: PIC50 PDE10 (converted)) [nM] | SMILES | SC Dose at max effect [3] [mg/kg] | SC Max effect (cumulative agitation score over 60 min) [3] | SC LAD (lowest active dose) [3] [mg/kg] | PO Dose at Max Effect [3] [mg/kg] | PO Max effect (cumulative agitation score over 60 min) [3] | PO LAD (lowest active dose) [3] [mg/kg] | IC50 [1] [nM] | IC50 [2] [nM]
15 | 12 | 50.1 |  | Cc1nc2ccc(CN[C@H]3CC[C@H](O)CC3)cc2n2c(-c3ccccc3Cl)nnc12 [Compound B-90] | 10 | 25 | > 10 |  |  |  |  | 
16 | 7.08 | 45.7 |  | Cc1nc2ccc(CNC3CCOCC3)cc2n2c(-c3ccccc3Cl)nnc12 [Compound B-76] | 10 | 16 | 10 |  |  |  |  | 
17 | 1.95 | 20 |  | CNC(=O)c1ccc2nc(C)c3nnc(-c4ccccc4Cl)n3c2c1 [Compound B-46] |  |  |  | 10 | 21 | > 10 |  | 
18 | 4.9 | 23.4 |  | Cc1nc2ccc(CN3CCOC(CF)C3)cc2n2c(-c3ccccc3Cl)nnc12 (stereo not drawn) [Compound B-59] | 10 | 15 | 10 |  |  |  |  | 
19 | 5.25 | 26.9 |  | Cc1nc2ccc(N3CCN(C)CC3)cc2n2c(-c3ccccc3Cl)nnc12 [Compound B-16, 1-(2-Chlorophenyl)-4-methyl-8-(4-methylpiperazin-1-yl)[1,2,4]triazolo[4,3-a]quinoxaline] | 2.5 | 21 | > 2.5 |  |  |  |  | 
20 | 3.89 | 15.5 |  | Cc1nc2ccc(OC(C)(F)F)cc2n2c(-c3ccccc3Cl)nnc12 [Compound B-25, 1-(2-Chlorophenyl)-8-(1,1-difluoroethoxy)-4-methyl[1,2,4]triazolo[4,3-a]-quinoxaline] |  |  |  | 10 | 19 | 10 |  | 
21 | 24.5 | 105 |  | Cc1nc2ccc(CN3CCOC(F)(C(F)(F)F)C3)cc2n2c(-c3ccccc3Cl)nnc12 (stereo not drawn) [Compound B-114] |  |  |  | 10 | 24 | > 10 |  | 
22 | 1.51 | 29.5 |  | Cc1nc2ccc(C(=O)NCCO)cc2n2c(-c3ccccc3Cl)nnc12 [Compound B-42] |  |  |  | 10 | 22 | > 10 |  | 
23 | 2.34 | 11 |  | Cc1nc2ccc(CNc3cccnc3)cc2n2c(-c3ccccc3Cl)nnc12 [Compound B-50] | 10 | 22 | > 10 |  |  |  |  | 
24 | 2 | 45.7 |  | Cc1nc2ccc(O)cc2n2c(-c3ccccc3Cl)nnc12 [Compound B-13, 1-(2-Chlorophenyl)-4-methyl[1,2,4]triazolo[4,3-a]quinoxalin-8-ol] |  |  |  | 10 | 19 | 10 |  | 

— patent publication US10604523B2, “1-aryl-4-methyl-[1,2,4]triazolo[4,3-a]quinoxaline derivatives” (Janssen Pharmaceutica NV, priority 2011, dated 2020)
